US20200009034A1, “TOPICAL SKIN LIGHTENING ADDITIVE AND COMPOSITION WITH AMINO ACIDS AND PPAR ACTIVATING FATTY ACIDS” (Conopco, Inc., d/b/a UNILEVER, priority 2017, published 2020)

Experiments:
[1] = system: Human primary melanocytes; assay: Melanin content assay (melanin synthesis inhibition); assay type: cell-based; settings: Melanocyte, 72 hours treatment
Experimental: Human primary melanocytes (Cascade Biologics, now ThermoFisher Scientific) were grown in melanocytes growth medium (MGM) with human melanocyte growth supplement (both media components from ThermoFisher Scientific). Melanocytes were seeded at 5×10^4 cells/well in 24 well-plates and incubated in a humidified incubator at 37° C. with 5% CO2 atmosphere. After 24 hours of incubation, cell cultures were treated with the GAP amino acids or 12- hydroxystearic acid, alone or in combination. The vehicle control consisted of cells treated with the vehicle GAP (0.002 mM NaOH), and/or additional test reagent vehicle, . After treatment, cells were again incubated for 72 hours in a humidified incubator at 37° C. with 5% CO2 atmosphere. At the end of the 72 hour incubation, the culture medium was replaced with 120 uL/well of melanin content assay reagent (10% DMSO in 1M sodium hydroxide) and incubated for 1 hour at 60° C. in a shaker incubator. The supernatant was then transferred to a 384 well plate. The absorbance was measured by spectrophotometric analysis at 405 nm with a micro plate reader (GEnios Pro, Tecan).
The spectrophotometric optical density at 405 nm for untreated cells (no active) was considered as 100% melanin content. Relative melanin content for treated samples was calculated with normalization based on the untreated (media/vehicle) control.

Human Keratinocytes [2] = assay: Glutathione assay (total glutathione after menadione challenge); assay type: cell-based
Experimental: Human Keratinocytes (Promocell, Heidelberg, Germany) were maintained in EpiLife® medium containing 60 uM calcium chloride and 1% Human Keratinocyte Growth Supplement (both media components from ThermoFisher Scientific) in a humidified incubator with an atmosphere containing 5% CO2 at 37° C. The medium was refreshed every 2-3 days. Subsequently, cells were trypsinized at 90% confluency and seeded at a density of 1×10^4 per well into 96-well plates with white wall and clear bottom. One or two days after seeding, cell medium was replaced with Hank's Balanced Salt Solution (HBSS), and keratinocytes were pre-treated with GAP (or 0.12-0.240 mM sodium hydroxide vehicle control, pH 7.5) alone or in combination with additional test reagents described above or L-cystine esters alone for 1-2 hours. The concentration of all amino acids constituting the GAP mixture used in this assay are designated in the data tables, and fully described in the abbreviations list below.
After one or two hours of pre-treatment with GAP or additional test reagents, alone or in combination, keratinocytes were then challenged with 25 uM menadione (Sigma-Aldrich), a known inducer of oxidative stress. After 18-20 hours, cells were harvested and analyzed for total glutathione levels using a commercially available kit (GSH-GSSG GLo Assay, Promega), a luminescence-based system for the detection and quantification of total glutathione in cultured cells. In summary, after cell treatment, the media was removed and replaced with a cell lysis reagent for 5 minutes at 20-25° C.; note, all remaining steps were also conducted at 20-25° C. Next, a luciferase generation reagent was added to each well and incubated for 30 minutes. Following this step, a luciferin detection reagent was added to each well and plates were incubated for 15 minutes. Finally, plates were then read for luminescence in a FlexStation 3 plate reader (Molecular Devices). Total glutathione levels were calculated after interpolation of glutathione concentrations from a standard curve. Experimental conditions were typically conducted in at least triplicate determinations. Statistical significance was calculated using 1-way ANOVA. Percent protection was calculated by using the calculated glutathione levels from each experiment in the following equation: […]

Human Keratinocytes [3] = assay: Cell viability assay (CCK-8); assay type: cell-based; settings: 18 hours; for viability at 20 µM / viability at 40 µM / viability at 80 µM / viability at 160 µM: Homo sapiens, Keratinocyte, read-out: Cell viability (% of vehicle control); for viability at 160 µM: 160 uM + menadione
Experimental: Human Keratinocytes (Promocell, Heidelberg, Germany) were maintained in EpiLife® keratinocyte medium containing 60 uM calcium chloride and 1% Human Keratinocyte Growth Supplement (HKGS). The medium was refreshed every other day. Subsequently, cells were trypsinized at 90% confluency and seeded at a density of 2×10^4 per well into 96-well transparent tissue culture plates. On the second day after seeding, cell medium was replaced with treatments as described above in ROS assay section. After 18 hours, […] (CCK-8) reagent (Dojindo, Kumamoto, Japan) was diluted 1:10 in HBSS and incubated with cells for 4 h at 37° C. in a humidified incubator. Optical absorption at 450 nm was measured using a Tecan Safire2 plate reader. Relative viability was calculated with normalization based on the vehicle control treatment, which was set to 100%.
Where indicated, percent protection was calculated as a comparison to menadione alone treatment, using the measured relative absorbance units in the following equation: […]

Human Keratinocytes [4] = assay: Reactive Oxygen Species (ROS) assay; assay type: cell-based; settings: 18 hours; for activity at 20 µM / activity at 40 µM / activity at 80 µM / activity at 160 µM: Homo sapiens, Keratinocyte, read-out: ROS inhibition (% of vehicle control); for activity at 20 µM / ROS % Protection (improvement vs. vehicle control + menadione): 20 uM + menadione; for activity at 40 µM: 40 uM + menadione; for activity at 80 µM: 80 uM + menadione; for activity at 160 µM: 160 uM + menadione
Experimental: Human Keratinocytes (Promocell, Heidelberg, Germany) were maintained in EpiLife® keratinocyte medium containing 60 uM calcium chloride and 1% Human Keratinocyte Growth Supplement (HKGS) in a humidified incubator with an atmosphere containing 5% CO2 at 37° C. The medium was refreshed every other day. Subsequently, cells were trypsinized at 90% confluency and seeded at a density of 1-2×10^4 per well into 96-well plates with black wall and clear bottom. On the second day after seeding, cell medium was replaced with Hank's Balanced Salt Solution (HBSS) with or without menadione (10-25 uM), GAP, GAP vehicle (0.2 mM NaOH, pH 7.5), above-described additional test reagents, or combinations of GAP with additional test reagents or L-cystine esters alone, and incubated for additional 18 hours. For ROS detection, CellROX green (Life Tech, Thermo Fisher Scientific, Rockford, USA) reagent was added into each well to a final concentration of 15-25 uM and incubated for additional 2-4 hours at 37° C. in a humidified incubator. The ROS fluorescence was detected using a Tecan microplate reader (Excitation/Emission=490/525). Relative ROS production was calculated with normalization based on the vehicle control treatment which was set to 100%. Where indicated, percent protection was calculated as a comparison to menadione alone treatment, using the measured relative fluorescent units in the following equation: […]
ROS levels were evaluated together with cell viability because it is possible to get a false negative for ROS if treatment is so toxic, that at the time of assay, cells are dead (and there are no longer any detectable ROS). Decrease in ROS levels is meaningful if cells are still viable.

[5] = pH less than 2 or pH above 8; cited from earlier work

Row | SMILES | Glutathione Synthesis, % Protection (improvement vs. vehicle control + menadione) (Human Keratinocytes [2]; 80 uM + menadione) | viability at 20 µM (Human Keratinocytes [3]; 20 uM + menadione) | viability at 40 µM (Human Keratinocytes [3]; 40 uM + menadione) | viability at 80 µM (Human Keratinocytes [3]; 80 uM + menadione) | viability at 160 µM (Human Keratinocytes [3]) | activity at 20 µM (Human Keratinocytes [4]) | activity at 40 µM (Human Keratinocytes [4]) | activity at 80 µM (Human Keratinocytes [4]) | activity at 160 µM (Human Keratinocytes [4]) | Glutathione Synthesis, % Protection (improvement vs. vehicle control + menadione) (Human Keratinocytes [2]; 40 uM + menadione) | Glutathione Synthesis, Mean (μm glutathione) (Human Keratinocytes [2]; 40 uM + menadione) | ROS % Protection (improvement vs. vehicle control + menadione) (Human Keratinocytes [4]) | other results
1 | CCCCCCC(O)CCCCCCCCCCC(=O)O (stereo not shown) [12-Hydroxystearic Acid, 12-hydroxystearic acid] | – | – | – | – | – | – | – | – | – | – | – | – | inhibition at 4 µM ([1]; 12-Hydroxystearic Acid 4 uM, alone or with GAP): 7%; inhibition at 8 µM ([1]; 12-Hydroxystearic Acid 8 uM, alone or with GAP): 10%
2 | COC(=O)[C@@H](N)CSSC[C@H](N)C(=O)OC.Cl.Cl [CDME, L-Cystine dimethyl ester dihydrochloride] | 31^1,2% | 90.9% | 93.1% | 87% | 106% | 108% | 111% | 114% | 97.9% | – | – | – | –
3 | CCOC(=O)[C@@H](N)CSSC[C@H](N)C(=O)OCC.Cl.Cl [DEC, Diethyl L-cystinate dihydrochloride] | – | 110% | 127% | 132% | 122% | 233% | 212% | 234% | 254% | 13^1,2% | 0.54^1,2 μm | 38.0^1,2% | –
4 | CC(C)(C)OC(=O)[C@@H](N)CSSC[C@H](N)C(=O)OC(C)(C)C.Cl.Cl [DTBC, Ditert-butyl L-cystinate dihydrochloride] | 1^1% | 78.1% | 75.9% | 73.6% | 104% | 367% | 324% | 269% | 221% | 0^1% | 0.17^1 μm | 2.2% | Glutathione Synthesis, Mean (μm glutathione) (Human Keratinocytes [2]; 80 uM + menadione): 0.19^1 μm; Cell viability % protection (improvement vs. vehicle control + menadione) (Human Keratinocytes [3]; 20 uM + menadione): 6.0^1%; Cell viability % protection (improvement vs. vehicle control + menadione) (Human Keratinocytes [3]; 40 uM + menadione): 3.0^1%; Cell viability % protection (improvement vs. vehicle control + menadione) (Human Keratinocytes [3]; 80 uM + menadione): −0.1^1%
5 | CCCCCCc1ccc(O)cc1O [HR, 4-hexylresorcinol, reference compound] | – | – | – | – | – | – | – | – | – | – | – | – | inhibition at 10 µM ([1]; 10 uM): 39%
6 | N[C@@H](CSSC[C@H](N)C(=O)O)C(=O)O [cystine] | – | – | – | – | – | – | – | – | – | – | – | – | solubility in aqueous solutions [5]: more soluble
